Converted amounts (≈) assume the structure as drawn. Where two headings read alike, the source gives them in different places.

As usually defined, the Solubility is how much of the substance goes into solution per volume. A low value points to a poorly soluble substance.

In data set [1] the test system is myosin II. Conditions: no reference given; cited from earlier work.
For data set [2], the target named is T1, rabbit skeletal muscle myosin S1 (SkS1) (Oryctolagus cuniculus, UniProt Q28641).
T1 construct: SkS1 (rabbit skeletal S1 fragment); from tissue; host or cells: rabbit skeletal muscle
Kind of data set: Steady state basal ATPase, SkS1. It counts as biochemical. Conditions: 25 °C.

Data set [3] concerns the target T1, rabbit skeletal muscle myosin S1 (SkS1). Kind of data set: Steady state actin activated ATPase, SkS1. In kind it is biochemical. Conditions: 45 μM actin, 25 °C. Here is the method: […]. Myosin and actin together with the indicated concentration of the inhibitor were pre-incubated for 5 minutes at room temperature and the measurements were initiated with 1 mM ATP. Data were corrected for background ATPase activity of actin. G-actin was prepared accordingly from rabbit skeletal muscle[24] and polymerized by 2 mM MgCl2 for 1 hour at room temperature. Measurements were performed in low salt buffer containing 5 mM HEPES, 2 mM MgCl2, 0.1 mM EGTA and 2 mM DTT at pH 7.2 or assay buffer containing 20 mM HEPES, 40 mM NaCl, 4 mM MgCl2 at pH 7.3 for basal ATPase activity measurements with DdMD.

The target in data set [4] is T2, Dictyostelium discoideum myosin II motor domain (DdMD) (Dictyostelium discoideum, UniProt P08799).
T2 construct: Dictyostelium discoideum myosin II motor domain (DdMD)
T2 sequence (P08799 86-759 limits assumed): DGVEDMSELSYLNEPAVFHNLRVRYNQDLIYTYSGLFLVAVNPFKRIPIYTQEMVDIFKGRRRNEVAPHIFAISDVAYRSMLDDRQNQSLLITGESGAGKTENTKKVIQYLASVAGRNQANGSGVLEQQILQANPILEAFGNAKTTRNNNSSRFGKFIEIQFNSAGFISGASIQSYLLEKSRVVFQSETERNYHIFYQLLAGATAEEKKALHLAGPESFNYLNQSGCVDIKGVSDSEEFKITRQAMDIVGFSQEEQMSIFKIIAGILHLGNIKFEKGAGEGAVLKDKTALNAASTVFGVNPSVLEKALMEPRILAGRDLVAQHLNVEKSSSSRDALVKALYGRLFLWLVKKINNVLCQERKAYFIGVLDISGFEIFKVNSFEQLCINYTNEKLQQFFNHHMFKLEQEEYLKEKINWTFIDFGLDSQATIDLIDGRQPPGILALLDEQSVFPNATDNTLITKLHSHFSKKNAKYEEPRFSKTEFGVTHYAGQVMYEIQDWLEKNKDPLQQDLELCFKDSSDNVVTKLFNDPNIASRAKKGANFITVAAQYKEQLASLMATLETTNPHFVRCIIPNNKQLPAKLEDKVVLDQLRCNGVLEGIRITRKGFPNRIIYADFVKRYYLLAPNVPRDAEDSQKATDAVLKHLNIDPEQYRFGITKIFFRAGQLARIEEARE
Kind of data set: biochemical. Conditions: for IC50: 20 °C. The method, then:
Myosin and actin together with the indicated concentration of the inhibitor were pre-incubated for 5 minutes at room temperature and the measurements were initiated with 1 mM ATP. Data were corrected for background ATPase activity of actin. G-actin was prepared accordingly from rabbit skeletal muscle[24] and polymerized by 2 mM MgCl2 for 1 hour at room temperature. Measurements were performed in low salt buffer containing 5 mM HEPES, 2 mM MgCl2, 0.1 mM EGTA and 2 mM DTT at pH 7.2 or assay buffer containing 20 mM HEPES, 40 mM NaCl, 4 mM MgCl2 at pH 7.3 for basal ATPase activity measurements with DdMD.

The subject of data set [5] is M2 cells. Kind of data set: Inhibition of blebbing (blebbing index) of M2 cells. In kind it is cell-based, human. Here is the method: Next, we compared the non-muscle myosin II inhibition by para-aminoblebbistatin, para-nitroblebbistatin and blebbistatin in human melanoma (M2) and HeLa cells. As blebbistatin acquired its name from its ability to block blebbing of M2 cells, we compared blebbing indices[17] of M2 cells in time, incubated in the three different myosin II inhibitors at different concentrations (Fig. 3c–e). Even 5 μM concentrations of the myosin II inhibitors achieved significant decrease in the blebbing indices of the cells within an hour, whereas higher concentrations of the inhibitors completely stopped blebbing of the cells within >40–60 minutes (10 μM) or >20 minutes (25 and 50 μM).
For blebbing index determination, M2 cells were incubated for 30 minutes in PBS in every case prior to the addition of inhibitors, in order to initiate extensive blebbing. Blebbing of the cells was monitored before as well as after inhibitor addition to the cells. DMSO concentration was 0.1 vol/vol% in all experiments. Blebbing index was calculated by summing the initiated blebs in a 5-minute interval (starting at the indicated time points) on a given standard area[17] (whole cells with similar size, diameter = 12 ± 1 μm) and normalizing it to the blebbing index prior to inhibitor treatment.

For data set [6], the system named is HeLa cells. Kind of data set: Wound healing assay (cell motility). Conditions: 20 μM, 24 hours, uncoated glass; 100% = total diameter of the wound; control 30.6 ± 5.4%. It counts as cell-based, human. Here is the method:
For wound healing assays, 200 μl of HeLa cells were plated on 35 mm borosilicate glass imaging dishes at 300,000 cells/ml concentrations and incubated for 24 hours. 1 hour prior to wounding, cells were incubated in 20 μM of the different myosin II inhibitors. After one hour, scratches were made with pipette tips in monolayer cultures and the motility of cells for occupying the wound was monitored for 24 hours with a Foculus Digital Camera (IEEE1394). Analysis of cell motility was carried out by ImageJ, by measuring the distance between two lines fitted on the two sides of the approaching cell edges created by the pipette tips.

Data set [7] has as its system zebrafish skeletal muscle. Kind of data set: Fast escape response (C-start), maximal angular velocity. It counts as in vivo, zebrafish (Danio rerio). Conditions: 2 μM. Here is the method:
(§1) Since the myosin II inhibitors decrease the ATPase activity of SkS1 in vitro, we tested their inhibition on zebrafish skeletal muscle in vivo. We investigated the fast escape response (C-start) reflex of 6 dpf fish evoked by standardized tapping stimuli (Video 1). […] The velocity of the rotating heads of the embryos were quantified (maximal angular velocity) in the absence and in the presence of increasing concentrations of the myosin II inhibitors (2, 5, 10, 20 μM), monitored for 4 hours. The half maximal effective concentration (EC50) values for the inhibition of the maximal angular velocity by the myosin II inhibitors are below 2 μM since even at 2 μM the inhibitory effects were >90% for all inhibitors. We experienced that the inhibitory effect of para-aminoblebbistatin is exerted much slower than that of blebbistatin and para-nitroblebbistatin, probably due to its slower uptake (half inhibitions at […], respectively) (Supplementary Figure 1). To further evaluate the specificity of blebbistatin and its derivatives on different myosin II isoforms, we examined the effect of the inhibitors on 6 dpf (days post fertilization) zebrafish heart muscle in vivo. We monitored heart beating and the amplitude of heart muscle contraction before and after the addition of 20 μM of the inhibitors to the specimens.
(§2) The tapping force was standardized. […] For the cytotoxicity assay, zebrafish embryos were incubated in E3 medium containing 0 μM (Control), 5 μM, 10 μM or 20 μM of para-aminoblebbistatin, para-nitroblebbistatin or blebbistatin in 0.1 vol/vol% final concentration of DMSO and monitored for 70 hours.

For data set [8], the system named is zebrafish heart muscle. Kind of data set: Heart beating and amplitude of heart muscle contraction. It counts as in vivo, zebrafish (Danio rerio). Conditions: 20 μM, 6 dpf. Here is the method:
as §1, §2

Data set [9] deals with cldnb:gfp zebrafish embryos. Kind of data set: Posterior lateral line primordium (pLLp) migration. It counts as in vivo, zebrafish (Danio rerio). Conditions: 20 μM, 24 hours of incubation. Here is the method: However, the highly fluorescent, dense precipitates of blebbistatin disturb imaging in the GFP channel of the microscope. […] In this experiment, cldnb:gfp zebrafish embryos were imaged by an epifluorescent microscope after 24 hours of incubation in the presence of 20 μM concentrations of the indicated inhibitors (Fig. 4d) in order to detect the effect of myosin II inhibition on the proliferating leading edge of the posterior lateral line primordium (pLLp)[21] and visualize the effect of the precipitates by epifluorescent microcopy. […] In the case of para-aminoblebbistatin treatment, the GFP signal of the migrating pLLp can be visualized clearly, while the precipitates of the two other inhibitors highly disturbed the imaging.

The test system of data set [10] is zebrafish embryo. Further details: method as in PMID 24954740. Conditions: after 24 hours of incubation; cited from earlier work.
In data set [11] the test system is HeLa Kyoto H2B-mCherry eGFP-α-tubulin cells. Kind of data set: Cell growth assay (cell number, cytokinesis).
Description: Cells incubated in different concentrations of the inhibitors were counted on each day for three days.
A short description of data set [12]: Solubility assays in assay buffer (supernatant concentration after centrifugation). Conditions: room temperature.
Description: 50 μM of the inhibitors were dissolved in assay buffer (see Experimental Procedures) containing 0.1 or 1 vol/vol% DMSO, centrifuged at the indicated times and the concentration of the supernatants were determined at each time point (Fig. 2a,b).
The DMSO content was 1%. […] The experiments were repeated three times.

T1 sequence (Q28641 1-844 limits assumed): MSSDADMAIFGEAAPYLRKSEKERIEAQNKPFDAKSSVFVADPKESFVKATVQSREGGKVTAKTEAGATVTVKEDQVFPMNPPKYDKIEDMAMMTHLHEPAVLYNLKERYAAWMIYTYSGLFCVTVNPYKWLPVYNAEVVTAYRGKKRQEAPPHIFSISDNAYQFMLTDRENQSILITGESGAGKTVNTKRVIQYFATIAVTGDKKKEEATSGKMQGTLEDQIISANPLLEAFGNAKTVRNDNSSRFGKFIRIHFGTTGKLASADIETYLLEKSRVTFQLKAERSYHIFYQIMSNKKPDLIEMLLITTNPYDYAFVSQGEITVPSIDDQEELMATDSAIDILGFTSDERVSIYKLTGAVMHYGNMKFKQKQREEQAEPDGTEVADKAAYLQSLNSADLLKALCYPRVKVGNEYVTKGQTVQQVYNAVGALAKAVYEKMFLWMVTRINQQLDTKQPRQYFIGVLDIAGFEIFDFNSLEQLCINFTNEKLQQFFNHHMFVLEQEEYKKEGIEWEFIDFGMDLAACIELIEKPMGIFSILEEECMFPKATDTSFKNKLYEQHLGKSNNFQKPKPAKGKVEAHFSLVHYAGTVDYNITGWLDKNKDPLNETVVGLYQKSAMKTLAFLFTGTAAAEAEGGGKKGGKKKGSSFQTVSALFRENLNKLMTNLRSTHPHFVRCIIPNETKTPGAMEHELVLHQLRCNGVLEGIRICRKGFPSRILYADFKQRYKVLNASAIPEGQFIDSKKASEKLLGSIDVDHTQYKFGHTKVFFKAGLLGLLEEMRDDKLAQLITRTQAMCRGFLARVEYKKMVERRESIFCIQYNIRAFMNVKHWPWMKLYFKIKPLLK
T1 sequence (P02602 whole entry partner, the tested form may be a part): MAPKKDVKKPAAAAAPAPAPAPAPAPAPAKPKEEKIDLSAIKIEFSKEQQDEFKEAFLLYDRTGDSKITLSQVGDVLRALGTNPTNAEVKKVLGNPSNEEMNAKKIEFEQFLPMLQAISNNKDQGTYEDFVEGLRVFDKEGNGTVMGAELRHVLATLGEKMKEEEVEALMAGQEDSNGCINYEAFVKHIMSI

For the compound `Cc1cc2c(cc1[N+](=O)[O-])N=C1N(c3ccccc3)CCC1(O)C2=O` (stereo not shown) [nitroblebbistatin], the IC50 in data set [1] was 27.5 µM.
Take `Cc1ccc2c(c1)C(=O)[C@]1(O)CCN(c3ccc([N+](=O)[O-])cc3)C1=N2` [para-nitroblebbistatin]: the IC50 in [2] came out at 0.3 ± 0.04 µM; in data set [3], 0.1 ± 0.004 µM; in data set [4] (15 μM actin, read-out: IC50 actin activated ATPase activity of DdMD), 3.4 ± 0.3 µM; in data set [4] (read-out: IC50 basal ATPase of DdMD) it was 5.3 ± 1.6 µM; in data set [11] (read-out: IC50 of the inhibition of cell proliferation, cell number at day 3), 14.7 ± 4.2 µM. Moreover, the “Maximal inhibition of actin activated ATPase of DdMD” value in [4] is reported as ~ 100%. For the same compound, the “Maximal inhibition of basal ATPase of DdMD” value in [4] was ~ 100%. Further, the figures for the “Time constant τ of inhibition of blebbing” value in data set [5] (5 μM), in data set [5] (10 μM) and in data set [5] (25 μM) were 21.9 ± 4.6 min, 11.7 ± 0.5 min and 5.9 ± 0.2 min, respectively. Also, in [6], the “Relative migration of HeLa cells” value was found to be 53.2 ± 17.6%. Besides, in [7], the “Half inhibition time of maximal angular velocity” value amounted to 1.3 h. Moreover, the “Time within which amplitude of contraction and blood circulation dropped drastically” value in data set [8] was “within the first hour”. Also, the “Effect on pLLp migration” value in data set [9] is “halted pLLp migration”. Besides, the “Toxicity in live zebrafish embryo tests” value in [10] is “negligible”. Further, in data set [11] (day 3), the “Fold weaker IC50 than blebbistatin's (cell proliferation)” value is given as 2–3 times. In addition, the Solubility in [12] (0.1 vol/vol% DMSO in assay buffer) stood at 3.3 ± 0.1 µM (≈ 1.11 µg/mL); in data set [12] (1 vol/vol% DMSO in assay buffer) it was 3.6 ± 0.2 µM (≈ 1.21 µg/mL).
